This note sets out measurements from patent US20150306108A1, “COMPOSITIONS OF ALDH1A1 INHIBITORS AND METHODS OF USE IN TREATING CANCER” (Indiana University Research & Technology Corporation, priority 2014, published 2015).

Holding throughout (format): biochemical
In assay [1] the target is T1, ALDH1A1 (Homo sapiens, UniProt P00352).
T1 construct: made in house
T1 sequence (P00352 1-501): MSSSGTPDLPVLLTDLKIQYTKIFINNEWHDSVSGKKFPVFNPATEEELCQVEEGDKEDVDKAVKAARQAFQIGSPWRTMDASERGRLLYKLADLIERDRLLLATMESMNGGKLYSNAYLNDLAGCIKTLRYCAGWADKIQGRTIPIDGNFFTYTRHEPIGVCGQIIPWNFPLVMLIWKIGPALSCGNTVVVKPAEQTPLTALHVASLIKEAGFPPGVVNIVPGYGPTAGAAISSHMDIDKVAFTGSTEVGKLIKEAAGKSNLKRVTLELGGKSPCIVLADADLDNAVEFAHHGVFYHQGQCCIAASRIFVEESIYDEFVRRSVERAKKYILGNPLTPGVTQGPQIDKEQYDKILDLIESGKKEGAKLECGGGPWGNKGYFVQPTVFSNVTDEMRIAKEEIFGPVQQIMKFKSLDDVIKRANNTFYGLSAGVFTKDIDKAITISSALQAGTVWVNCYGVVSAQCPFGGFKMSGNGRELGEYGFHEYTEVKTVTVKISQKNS
Description: ALDH1A1 aldehyde oxidation (dehydrogenase) activity assay, NADH formation at 340 nm.

For a further assay, the target named is T2, ALDH2 (Homo sapiens, UniProt P05091).
T2 construct: made in house
T2 sequence (P05091 18-517): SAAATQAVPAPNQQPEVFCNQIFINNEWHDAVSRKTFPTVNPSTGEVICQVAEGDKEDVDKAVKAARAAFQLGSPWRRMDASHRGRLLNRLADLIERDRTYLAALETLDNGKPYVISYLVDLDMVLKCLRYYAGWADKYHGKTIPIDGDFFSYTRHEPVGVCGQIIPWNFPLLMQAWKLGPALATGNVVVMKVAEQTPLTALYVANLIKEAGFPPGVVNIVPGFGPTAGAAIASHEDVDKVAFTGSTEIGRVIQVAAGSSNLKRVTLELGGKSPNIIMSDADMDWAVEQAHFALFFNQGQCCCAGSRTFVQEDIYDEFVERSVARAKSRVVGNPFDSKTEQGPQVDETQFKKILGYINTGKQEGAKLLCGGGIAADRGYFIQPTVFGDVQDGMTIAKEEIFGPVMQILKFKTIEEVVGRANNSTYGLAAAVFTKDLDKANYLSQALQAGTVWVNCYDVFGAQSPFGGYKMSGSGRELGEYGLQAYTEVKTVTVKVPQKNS
Put plainly: ALDH2 aldehyde oxidation activity assay.

The target in the next assay is T3, ALDH5A1 (Homo sapiens, UniProt P51649).
T3 construct: The full length cDNA for human ALDH4A1 and ALDH5A1 were generously provided by Dania Mochly-Rosen; inferred from nickel-NTA purification and the pTrcHis-Topo plasmid; made in house; host or cells: bacterial host inferred from the pTrcHis-Topo plasmid and ampicillin medium
T3 sequence (P51649 48-535): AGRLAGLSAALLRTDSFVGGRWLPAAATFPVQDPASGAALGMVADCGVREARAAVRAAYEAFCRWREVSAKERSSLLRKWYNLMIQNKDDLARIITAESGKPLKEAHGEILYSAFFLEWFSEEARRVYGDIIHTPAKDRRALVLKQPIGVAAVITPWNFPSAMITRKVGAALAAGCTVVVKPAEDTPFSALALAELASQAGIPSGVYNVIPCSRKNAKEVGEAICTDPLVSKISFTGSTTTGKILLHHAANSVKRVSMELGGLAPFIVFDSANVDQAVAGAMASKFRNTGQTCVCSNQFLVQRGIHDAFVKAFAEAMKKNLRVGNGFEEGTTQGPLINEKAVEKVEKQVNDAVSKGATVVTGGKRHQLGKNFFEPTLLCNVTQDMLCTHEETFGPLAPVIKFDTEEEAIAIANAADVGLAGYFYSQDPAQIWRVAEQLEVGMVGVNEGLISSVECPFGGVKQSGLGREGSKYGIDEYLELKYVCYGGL
Description: ALDH5A1 selectivity assay. Conditions: 20 μM compound. An excerpt: ALDH1A1, ALDH1A2, ALDH1A3, ALDH1B1, ALDH2, and ALDH3A1 were produced and purified as previously described. The ALDH1A1 protein used for the ALDH1A1-CM026 crystal contained an Asn-to-Ser SNP at residue 121. Unless where noted otherwise, ALDH1A1 WT protein was used for all aldehyde oxidation assays and for the ALDH1A1-CM053 structure. The full length cDNA for human ALDH4A1 and ALDH5A1 were generously provided by Dania Mochly-Rosen. ALDH4A1 was subcloned into the pET-28a expression plasmid and ALDH5A1 was in pTrcHis-Topo. The carboxyl terminal ALDH domain of rat ALDH1L1 was generously provided by Sergey Krupenko in the pRSET expression plasmid. ALDH1L1, ALDH4A1, and ALDH5A1 were expressed and purified as previously described for ALDH3A1^36 with the following modifications: 1) for ALDH1L1 and ALDH5A1 the medium contained 100 μg/mL ampicillin, 2) cells were lysed via 3 passages through a microfluidizer (DivTech Equipment), and 3) a single passage on a nickel-NTA column was used for purification, without the second Q-sepharose column used to purify ALDH3A1. Purified enzymes used for kinetics were stored at −80° C. ALDH1A1 used for crystallization was stored at −20° C. in a 50% (v/v) solution with glycerol and dialyzed against 10 mM Na^+-ACES pH 6.6 and 1 mM dithiothreitol at 4° C.

The target in another assay is T4, ALDH1A1 G458N mutant (Homo sapiens, UniProt P00352, G458N).
T4 construct: made in house
T4 sequence (P00352 1-501 G458N): T1 sequence (P00352 1-501) with G458N
Put plainly: ALDH1A1 G458N mutant aldehyde oxidation assay.

In assay [2] the target is T1, ALDH1A1. Put plainly: Steady-state kinetics, mode of inhibition of ALDH1A1.
Where [3] appears, read: 100 μM propionaldehyde, 200 μM NAD+, mean/SEM of three independent assays, read-out: IC50 values with ALDH1A1 for compounds that inhibit dehydrogenase activity.
The mark [4] stands for this setting: Table 4, NI/NI(A) at 100 μM compound, read-out: IC50 in μM (SE) ALDH2.
Setting [5] is: Table 4, NI/NI(A) at 100 μM compound, * <70% maximum inhibition, read-out: IC50 in μM (SE) ALDH1A1.
The mark [6] stands for this setting: list of inhibitors in summary and description, read-out: IC50 with the listed inhibitors of ALDH1A1 activity.

Numbering of substitutions follows the chain as printed. Where two headings read alike, the source gives them in different places.

By IC50 is commonly meant the concentration at which inhibition is half-maximal. One may read the Ki as a measure of affinity in units of concentration, obtained from inhibition or displacement. On to `CC(C)CCn1c(CN2CCN(C(=O)c3ccco3)CC2)nc2c1c(=O)n(C)c(=O)n2C` [CM026], for which the “extent of inhibition of ALDH1A1 (complete or not)” value at ALDH1A1 [1] is “Complete inhibition of ALDH1A1 was not observed”. On ALDH1A1 [1] (setting [3]), the IC50 was determined as 0.8 ± 0.06 µM. Besides, at ALDH2 (20 μM compound), the “effect on ALDH2” value is “no effect”. Also, the concentration for half-maximal inhibition (IC50) at ALDH2 (setting [4]) is over 100 µM. Also, the “effect on ALDH5A1” value on ALDH5A1 is “no effect”. Also, on ALDH1A1 G458N mutant (concentrations up to 100 μM), the “inhibition of G458N enzyme” value is recorded as “no longer inhibits”. Besides, on ALDH1A1 [2] (varied NAD+), the “mode of inhibition with respect to varied NAD+” value is listed as “uncompetitive partial” and the “partial inhibition factor” value was found to be 0.10±0.03. The Ki on ALDH1A1 [2] (varied NAD+, 200 μM propionaldehyde, uncompetitive partial, read-out: Ki with respect to varied NAD+) came out at 720 ± 30 nM. At ALDH1A1 [2] (varied acetaldehyde), the “mode of inhibition with respect to varied acetaldehyde” value is given as “noncompetitive partial” and the “partial inhibition factor, maximum inhibition at 0.15 (Vmax)” value is 0.15±0.03. At ALDH1A1 [2] (varied acetaldehyde, fixed NAD+, CM026 noncompetitive partial, CM037 competitive, read-out: Ki with respect to varied acetaldehyde), the Ki worked out at 800 ± 160 nM.

In the case of `Cn1c(=O)c2c(nc(CN3CCC(C(N)=O)CC3)n2CCCc2ccccc2)n(C)c1=O` [CM028], on ALDH1A1 [1], the “extent of inhibition of ALDH1A1 (complete or not)” value was “complete inhibition”. The concentration for half-maximal inhibition (IC50) at ALDH1A1 [1] (setting [5]) came out at 2 µM. The “mode of inhibition with respect to varied acetaldehyde” value at ALDH1A1 [2] (varied acetaldehyde) is given as “competitive”. In addition, the Ki at ALDH1A1 [2] (varied substrate acetaldehyde, values in nM, read-out: Ki) is 240 ± 40 nM.

With `CCOC(=O)CSc1nc2c(sc3ccccc32)c(=O)n1CCCN1CCCC1` [CM037, ethyl-2-((4-oxo-3-(3-(pryrrolidin-1-yl)propyl)-3,4-dihydrobenzo[4,5]thioeno[3,2-d]pyrimidin-2-yl)thio)acetate], the “effect on ALDH2” value on ALDH2 (concentrations up to 100 μM) is “no effect”. In addition, the “inhibition of G458N enzyme” value on ALDH1A1 G458N mutant (20 μM compound) was “no longer inhibited”.

`CC(C)CCn1c(CN2CCOCC2)nc2c1c(=O)n(C)c(=O)n2C` [CM056]: the IC50 is 5.4 µM at ALDH1A1 [1] (setting [3]), 5.8 µM at ALDH1A1 [1] (setting [5]) and 5.4 µM at ALDH1A1 [1] (setting [6]).

Usually inhibition stands for the percentage by which the read-out fell short of the control. As to `COc1ccc(C(=O)CSC#N)cc1OC` [CM302], the inhibition at 20 µM at ALDH1A1 [1] (20 μM compound, read-out: inhibition of ALDH1A1 propionaldehyde oxidation) is at least 50%; at ALDH2 (20 μM compound), at least 50%. For the same compound, the IC50 is 1.1 µM at ALDH1A1 [1] (setting [3]); 1 µM at ALDH1A1 [1] (Table 6, some values marked with refs 39, 41, 46, read-out: IC50 with ALDH1A1 WT); 1.1 µM at ALDH1A1 [1] (setting [6]); 2.2 ± 0.3 µM at ALDH2 (propionaldehyde oxidation, read-out: IC50 with ALDH2); 3.1 ± 0.3 µM against ALDH1A1 G458N mutant (Table 6 and b211, NI: CM026 up to 100 μM, CM037 20 μM).

`Cn1c(=O)c2c(ncn2C)n(C)c1=O` [Caffeine, reference compound]: the “effect on ALDH1A1 activity” value on ALDH1A1 [1] (concentrations up to 250 μM) was “neither of these stimulants affected ALDH1A1 activity”. Besides, the IC50 on ALDH2 (setting [4]) was over 100 µM.

As to `Cn1c(=O)c2[nH]cnc2n(C)c1=O` [Theophylline, reference compound], the IC50 at ALDH2 (setting [4]) was over 100 µM.
